From ChEMBL document CHEMBL4602694, “Suppression of Drug-Resistant Non-Small-Cell Lung Cancer with Inhibitors Targeting Minichromosomal Maintenance Protein” (J Med Chem, 2020) come the findings set out here.

Structures are written as SMILES. Calls of active or inactive are those of the source. No cut-off for these calls is given here.

The nature of series [1]: Toxicity in athymic nude BALB/c mouse xenografted with human NCI-H1975 cells assessed as effect on serum aspartate transaminase at 1 or 4 mg/kg, ip administered for 4 weeks. Particulars: in vivo, 672 h. It is filed as organism-based.
Series [2] has as its target T1, DNA replication licensing factor MCM3 (Homo sapiens) (UniProt P25205).
T1 sequence (whole entry): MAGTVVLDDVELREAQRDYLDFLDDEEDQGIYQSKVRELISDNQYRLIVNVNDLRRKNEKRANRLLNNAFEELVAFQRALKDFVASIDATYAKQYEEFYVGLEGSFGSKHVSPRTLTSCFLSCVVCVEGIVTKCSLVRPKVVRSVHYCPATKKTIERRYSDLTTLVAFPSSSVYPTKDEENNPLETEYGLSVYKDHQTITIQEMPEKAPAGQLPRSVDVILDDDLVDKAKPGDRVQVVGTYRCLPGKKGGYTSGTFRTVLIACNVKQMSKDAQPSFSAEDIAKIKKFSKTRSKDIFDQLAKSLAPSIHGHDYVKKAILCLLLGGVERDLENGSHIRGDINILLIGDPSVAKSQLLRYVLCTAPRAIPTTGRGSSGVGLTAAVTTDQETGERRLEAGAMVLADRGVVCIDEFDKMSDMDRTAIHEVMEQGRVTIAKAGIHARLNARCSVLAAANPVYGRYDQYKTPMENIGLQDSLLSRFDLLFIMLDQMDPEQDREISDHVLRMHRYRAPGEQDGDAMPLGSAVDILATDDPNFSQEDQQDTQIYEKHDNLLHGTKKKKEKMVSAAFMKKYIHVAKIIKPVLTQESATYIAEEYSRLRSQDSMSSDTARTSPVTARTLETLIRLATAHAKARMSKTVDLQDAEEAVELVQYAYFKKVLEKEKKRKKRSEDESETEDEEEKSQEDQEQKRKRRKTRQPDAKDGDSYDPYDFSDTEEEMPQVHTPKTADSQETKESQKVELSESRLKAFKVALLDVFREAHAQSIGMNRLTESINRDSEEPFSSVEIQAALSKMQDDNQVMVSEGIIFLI
In words: Induction of ubiquitination of MCM3 in human NCI-H1975 cells incubated for 48 hrs by immunoblot analysis (reference value: 1). It counts as cell-based. In general terms: A western blot detects proteins with antibodies after separation by electrophoresis.

Series [3] concerns NCI-H1975. In words: Cell cycle arrest in human NCI-H1975 cells assessed as BrdU positive cells at 140 nM incubated for 48 hrs by BrdUrd incorporation assay (reference value: 34 +/- 5.6 %). It is filed as functional.
Series [4] in a line: Selectivity index, ratio of IC50 for human bronchial epithelial cells to IC50 for human CL1-5 cells. It counts as toxicity. To be noted: human bronchial epithelial cells versus CL1-5 cells, read-out: Ratio IC50.
The target in series [5] is T1, DNA replication licensing factor MCM3 (Homo sapiens). The series can be described thus: Induction of ubiquitination of MCM3 in human NCI-H1975 cells incubated for 72 hrs by immunoblot analysis (reference value: 1). It is filed as cell-based.
Series [6] concerns NCI-H1975. In words: Antitumor activity against human NCI-H1975 cells xenografted in athymic nude BALB/c mouse assessed as tumor growth at 4 mg/kg, ip administered for 4 weeks (reference value: 1217 +/- 516.6 cu.mm). It counts as functional.
Series [7] deals with DNA replication licensing factor MCM2 (Homo sapiens), P49736 [Q341A]. In words: Induction of ubiquitination of FLAG-tagged MCM2 Q341A mutant (unknown origin) expressed in human NCI-H1975 cells incubated for 24 hrs by magnetic beads technique based immunoblot analysis. It is filed as cell-based.
Sequence of DNA replication licensing factor MCM2 (Homo sapiens), P49736 [Q341A] (P49736 whole entry Q341A): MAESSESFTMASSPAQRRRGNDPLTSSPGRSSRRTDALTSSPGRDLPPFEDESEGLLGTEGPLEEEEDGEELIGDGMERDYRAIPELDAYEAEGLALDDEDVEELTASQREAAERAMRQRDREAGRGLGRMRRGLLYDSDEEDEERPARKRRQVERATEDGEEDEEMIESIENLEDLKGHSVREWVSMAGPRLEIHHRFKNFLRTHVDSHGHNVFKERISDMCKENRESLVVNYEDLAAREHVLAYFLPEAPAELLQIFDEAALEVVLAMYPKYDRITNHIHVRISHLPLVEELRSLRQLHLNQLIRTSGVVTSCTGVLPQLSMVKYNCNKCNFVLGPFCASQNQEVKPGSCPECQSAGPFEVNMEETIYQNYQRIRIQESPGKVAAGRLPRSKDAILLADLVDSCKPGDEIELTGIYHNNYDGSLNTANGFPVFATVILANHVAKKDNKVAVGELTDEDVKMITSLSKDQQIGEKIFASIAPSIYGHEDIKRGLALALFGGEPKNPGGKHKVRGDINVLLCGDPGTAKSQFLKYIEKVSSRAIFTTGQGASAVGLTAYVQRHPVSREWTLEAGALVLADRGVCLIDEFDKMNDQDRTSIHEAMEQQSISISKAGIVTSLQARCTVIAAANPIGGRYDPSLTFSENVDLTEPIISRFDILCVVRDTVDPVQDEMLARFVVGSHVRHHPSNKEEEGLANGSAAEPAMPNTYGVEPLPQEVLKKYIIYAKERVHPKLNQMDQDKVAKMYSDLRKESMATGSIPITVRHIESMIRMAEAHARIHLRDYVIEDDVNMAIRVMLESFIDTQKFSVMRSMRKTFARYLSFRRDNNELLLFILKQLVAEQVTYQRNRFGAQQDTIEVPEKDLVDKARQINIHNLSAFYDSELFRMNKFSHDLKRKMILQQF
The target of series [8] is DNA replication licensing factor MCM7 (Homo sapiens) (UniProt P33993). In words: Induction of ubiquitination of MCM7 in human NCI-H1975 cells in presence of MG132 incubated for 48 hrs followed by MG132 addition and measured after 12 hrs by immunoblot analysis (reference value: 1.6). It is filed as cell-based.
Sequence of DNA replication licensing factor MCM7 (Homo sapiens) (P33993 whole entry): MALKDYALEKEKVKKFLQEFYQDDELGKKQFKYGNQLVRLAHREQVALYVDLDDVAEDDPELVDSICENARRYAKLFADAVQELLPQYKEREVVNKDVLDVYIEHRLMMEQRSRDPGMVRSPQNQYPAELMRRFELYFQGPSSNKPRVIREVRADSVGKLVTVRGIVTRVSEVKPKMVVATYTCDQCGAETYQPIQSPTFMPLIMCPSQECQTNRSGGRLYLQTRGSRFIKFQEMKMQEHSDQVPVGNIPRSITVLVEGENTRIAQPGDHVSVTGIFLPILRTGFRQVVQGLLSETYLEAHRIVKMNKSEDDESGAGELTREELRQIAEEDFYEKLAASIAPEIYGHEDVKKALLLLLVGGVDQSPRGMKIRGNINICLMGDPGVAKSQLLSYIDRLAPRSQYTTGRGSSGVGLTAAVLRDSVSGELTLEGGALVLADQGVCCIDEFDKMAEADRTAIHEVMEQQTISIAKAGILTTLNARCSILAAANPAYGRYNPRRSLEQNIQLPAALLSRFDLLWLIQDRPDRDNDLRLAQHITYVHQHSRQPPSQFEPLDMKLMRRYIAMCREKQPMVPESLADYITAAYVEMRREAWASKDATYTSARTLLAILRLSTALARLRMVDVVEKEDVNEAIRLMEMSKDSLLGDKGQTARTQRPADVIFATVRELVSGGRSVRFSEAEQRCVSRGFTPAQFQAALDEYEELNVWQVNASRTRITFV
In series [9] the target is T2, DNA replication licensing factor MCM5 (Homo sapiens) (UniProt P33992).
T2 sequence (whole entry): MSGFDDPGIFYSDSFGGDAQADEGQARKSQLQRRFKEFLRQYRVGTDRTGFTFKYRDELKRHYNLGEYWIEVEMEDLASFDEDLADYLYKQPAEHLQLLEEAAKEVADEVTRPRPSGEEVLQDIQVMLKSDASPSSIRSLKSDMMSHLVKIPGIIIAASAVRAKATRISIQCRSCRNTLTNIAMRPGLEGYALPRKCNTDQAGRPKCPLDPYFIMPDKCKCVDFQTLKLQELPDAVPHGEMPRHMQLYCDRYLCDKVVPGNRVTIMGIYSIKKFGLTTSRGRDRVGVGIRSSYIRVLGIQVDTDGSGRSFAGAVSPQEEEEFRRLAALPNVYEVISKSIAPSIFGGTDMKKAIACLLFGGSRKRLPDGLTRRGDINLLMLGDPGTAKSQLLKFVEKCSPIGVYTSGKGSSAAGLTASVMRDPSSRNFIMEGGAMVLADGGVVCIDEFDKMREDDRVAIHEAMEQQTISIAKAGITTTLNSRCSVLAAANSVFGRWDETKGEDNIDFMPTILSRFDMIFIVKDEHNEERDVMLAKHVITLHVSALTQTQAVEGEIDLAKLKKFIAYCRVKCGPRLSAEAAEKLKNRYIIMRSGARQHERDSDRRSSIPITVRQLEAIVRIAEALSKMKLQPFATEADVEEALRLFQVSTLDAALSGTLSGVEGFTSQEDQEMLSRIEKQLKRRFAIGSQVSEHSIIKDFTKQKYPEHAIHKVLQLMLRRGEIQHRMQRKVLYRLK
The series can be described thus: Induction of ubiquitination of MCM5 in human NCI-H1975 cells incubated for 48 hrs by immunoblot analysis (reference value: 1). It is filed as cell-based.

Series [10] concerns the target DNA replication licensing factor MCM2 (Homo sapiens) (UniProt P49736). The series can be described thus: Induction of ubiquitination of MCM2 in human NCI-H1975 cells incubated for 48 hrs by immunoblot analysis (reference value: 1). It counts as cell-based.
Series [11] has as its target DNA replication licensing factor MCM7 (Homo sapiens) (UniProt P33993). The series can be described thus: Induction of ubiquitination of MCM7 in human NCI-H1975 cells incubated for 48 hrs by immunoblot analysis (reference value: 1). It is filed as cell-based.
For series [12], the target named is T1, DNA replication licensing factor MCM3 (Homo sapiens). The series can be described thus: Induction of ubiquitination of MCM3 in human NCI-H1975 cells incubated for 24 hrs by immunoblot analysis (reference value: 1). It is filed as cell-based.

Sequence of DNA replication licensing factor MCM2 (Homo sapiens) (P49736 whole entry): as the sequence (P49736 whole entry Q341A) above, with A341Q counted along it

For the molecule `Cc1oc2c(c1C(=O)NCCCn1ccnc1)C(=O)c1ccccc1C2=O`, the Activity result is “Non-Toxic” in [1]; 1.1 in series [2]; 16% in the series with NCI-H1975 [3]; 0.1 in [5]; 518 mm3 in the series on NCI-H1975 [6]; 0.7 in series [8]. The Activity in series [9] was determined as 0.6; in [10], 0.4; in series [11], 0.5; in series [12] it was 1.1. The selectivity ratio in [4] was greater than 10. Also, the result in series [7] was inactive.
